Assay results published in patent publication US20250332178A1, “METHODS OF TREATING MYCOBACTERIAL INFECTIONS USING TETRACYCLINE COMPOUNDS” (priority 2018, published 2025).
Converted amounts (≈) assume the structure as drawn.

Assays:
[1] = Stability of antimicrobial drugs, large-plate agar diffusion assay; type: physicochemical; settings: within the first 24 hours
Description: Antimicrobial activity over time was assessed using the standard large-plate agar diffusion assay as previously described in detail (Bennett et al., Appl. Microbiol. 1966, 14 (2): 170-7). In short, a Staphylococcus aureus strain susceptible to omadacycline and a Micrococcus luteus strain susceptible to tigecycline were plated onto solid diagnostic sensitivity test (D.S.T.) agar (Oxoid, Hampshire, UK). A two-fold increasing standard concentration series was prepared.

M. avium = assay: MIC (CLSI broth dilution), slow-growing NTM isolates; type: cell-based
[2] = system: M. abscessus subsp. abscessus CIP 104536; type: cell-based; settings: at 4 mg/L, after 7 days of drug exposure; subculture plates 16 mg/L

CN(C)c1cc(CNCC(C)(C)C)c(O)c2c1C[C@H]1C[C@H]3C(N(C)C)C(O)=C(C(N)=O)C(=O)[C@@]3(O)C(O)=C1C2=O (stereo partly drawn) [Omadacycline, (4aS,5aR,12aS)-4,7-bis(dimethylamino)-3,10,12,12a-tetrahydroxy-9-((neopentylamino)methyl)-1,11-dioxo-1,4,4a,5,5a,6,11,12a-octahydrotetracene-2-carboxamide]
decline in concentration [1]: 20%

NCC[C@H](O)C(=O)N[C@@H]1C[C@H](N)[C@@H](O[C@H]2O[C@H](CN)[C@@H](O)[C@H](O)[C@H]2O)[C@H](O)[C@H]1O[C@H]1O[C@H](CO)[C@@H](O)[C@H](N)[C@H]1O [Amikacin, amikacin]
MIC (M. avium; isolate 1, MAC): 32 µg/mL (≈ 54.6 µM)
MIC (M. avium; isolate 2, MAC): 16 µg/mL (≈ 27.3 µM)
MIC (M. avium; isolate 3, MAC): 8 µg/mL (≈ 13.7 µM)

CN(C)c1cc(NC(=O)CNC(C)(C)C)c(O)c2c1C[C@H]1C[C@H]3[C@H](N(C)C)C(O)=C(C(N)=O)C(=O)[C@@]3(O)C(O)=C1C2=O [Tigecycline, tigecycline]
selection of drug resistance above the spontaneous mutation frequency [2]: 0.6%
